These results are taken from patent publication US20180338952A1, “COMPOSITIONS AND METHODS FOR TREATING AND DIAGNOSING OCULAR DISORDERS” (Translatum Medicus Inc., priority 2014, published 2018).

Data set [1] relates to circulating monocytes and resident macrophages. Put plainly: Monocyte/macrophage depletion in the NaIO3 model, FAF/DNIRA pattern. Type of data set: in vivo, rat. As to conditions: for NaIO3-induced pattern of FAF (and DNIRA): macrophage/monocyte depletion, Day 3 and Day 7 after NaIO3. An excerpt:
To determine the identity of the autofluorescent cells that coincide with the reticular pattern of FAF, excised retina were stained for with markers of the innate immune system, avoiding the 488 nm channel. Iba1 is a pan-microglial/macrophage marker and in the rat retina; antibodies against it identify the major phagocytic cell populations. […] Further, when compared against photoreceptor nuclear staining, this curvilinear pattern is seen to lie interposed between folds of the deformed ONL. This pattern of Iba1^+ cells corresponds with the pattern of hyperfluorescence observed in vivo by FAF imaging, and with the pattern of autofluorescent cells in excised retina. […] Importantly, at 7 days after NaIO3, all RPE cells are absent from the posterior eye cup, confirming that these cells cannot be responsible for the observed FAF. Also, identification of the autofluorescent cells as phagocytic was confirmed by comparison of imaging to preparations in which monocyte/macrophage depletion has been undertaken. Such depletion was achieved by treatment with gadolinium chloride (GAD).
Further, to confirm that hyperfluorescent FAF or abnormal patterns of FAF and hyperfluorescent DNIRA correlated or co-localized with the distribution of phagocytic cells, the circulating macrophage/monocyte population was depleted using gadolinium chloride (GAD or GdCl3), a rare earth metal salt which depresses macrophage activity. […] This was evident qualitatively both within the geographic areas of damage, and at its border (FIGS. 8A-C).

The test system of data set [2] is retinal function (b-wave amplitude). Kind of data set: Electroretinography toxicity study of systemic ICG. To be noted: high (5.0 mg/kg) and low (0.35 mg/kg) systemic dose vs PBS; three weeks following injection.
Experimental: Electroretinography (ERG) was performed to evaluate potential toxicity.
Electroretinography (ERG): animals receiving ICG or PBS were evaluated using the Espion (DiagnosysLLC, USA) mini-Ganzfeld ERG system. Following anesthesia, animals were placed on an electrically silent heating pad and gold coil electrodes placed on the corneal surface after application of GenTeal lubricating drops. Following a short train of dim flashes (0.01 candela s/m^2, 1.0 Hz), a scotopic b-wave amplitude was evaluated using a single bright flash (3 candela s/m^2) that we previously determined consistently produces a response close to the maximum b-wave amplitude. Student t-test was used to compare post-injection amplitudes against baseline (prior to injection).
Data set [3] concerns the target complement factor D (CFD) (Homo sapiens, UniProt P00746). As to conditions: phase II, 18 month period, patients; cited from earlier work.

Entries after “also recorded” stand apart in the source; their conditions may differ.

Chain of complement factor D (CFD) (P00746 26-253): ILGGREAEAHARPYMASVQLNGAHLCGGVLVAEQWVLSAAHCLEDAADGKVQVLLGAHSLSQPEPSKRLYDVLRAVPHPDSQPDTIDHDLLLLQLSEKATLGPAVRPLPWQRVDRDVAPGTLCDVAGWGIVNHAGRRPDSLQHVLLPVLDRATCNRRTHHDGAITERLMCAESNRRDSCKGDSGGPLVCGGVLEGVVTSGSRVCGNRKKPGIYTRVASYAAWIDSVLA

`[Cl][Gd]([Cl])[Cl]` [GAD, gadolinium chloride]: the area of damage entry in data set [1] (7 days after NaIO3 and simultaneous GAD depletion) is reported as “smaller areas of damage”. Further, the “NaIO3-induced pattern of FAF (and DNIRA)” value in data set [1] is recorded as “far less well defined reticular patterns of FAF; also recorded: profound alteration; also recorded: less well-demarcated borders”; in data set [1] (listed as gadolinium) it was “alters the FAF pattern”.
Consider `CC1(C)C(/C=C/C=C/C=C/C=C2\N(CCCCS(=O)(=O)O)c3ccc4ccccc4c3C2(C)C)=[N+](CCCCS(=O)(=O)[O-])c2ccc3ccccc3c21` [ICG, indocyanine green], for which, in data set [2], the “change in ERG b-wave amplitude” value is recorded as “no statistically significant change”.
With “Lampilizumab: complement factor D (CFD) inhibitor; anti-factor D antibody (Genentech)”, in data set [3], the “growth (expansion) of geographic atrophy” value is “can slow the growth”.
